Experimental data: patent US5594009A, “Fused pyrrolocarbazoles” (priority 1995, dated 1997)
Read-outs that look alike come from different tables or passages of the source.

How the values were obtained:
protein kinase C = test: PKC Activity Inhibition Assay; assay type: biochemical
Experimental: Fused pyrrolocarbazoles inhibited the activity of protein kinase C (Table VI). The protein kinase C assay has been disclosed (Murakata et al., U.S. Pat. No. 4,923,986; Kikkawa et al., J. Biol. Chem. 257:13341-13348 (1982)). The assay was performed with several concentrations of fused pyrrolocarbazoles. The concentration at which protein kinase C was 50% inhibited (IC50) was determined.

[1] = system: NT-3 induced ChAT activity of rat basal forebrain cultures; test: Enhancement of Neurotrophin (NT-3) Activity Assay, ChAT activity in basal forebrain cultures; assay type: cell-based; settings: for ChAT activity in the absence of NT-3: compound added alone to basal forebrain neurons, no NT-3; for ChAT activity in the presence of NT-3: with 100 ng/ml NT-3
Experimental: Fused pyrrolocarbazoles were tested for the ability to enhance the activity of the neurotrophin NT-3 in basal forebrain cultures. ChAT activity was assayed as a measure of cholinergic neuron function and survival. The concentration of NT-3 (100 ng/ml) used in these experiments increased ChAT activity over control cultures (untreated with NT-3 or a fused pyrrolocarbazole) by 140%.
Methods. Basal forebrain cultures were prepared from embryonic rats (embryonic day 17) and dissociated with the neutral protease Dispase™. Cells were plated at a density of 4×10^5 cells/cm^2 on poly-1-ornithine coated plastic tissue culture plates in a mixture of DMEM and F12 media (50/50 v/v GIBCO) supplemented with 5% horse serum and 0.5% fetal bovine serum. Cells were incubated at 37° C. in a humidified atmosphere of 5% CO2 /95% air for 5 days. ChAT activity was measured as described in Example III(A)(1).
Recombinant rat NT-3 was produced by using a recombinant baculovirus expression vector under the control of the polyhedron virus promoter (Fraser, In Vitro Cell. and Dev. Biol. 25:225-235 (1989)). The plasmid pXM-NT3 (Hallbook et al., Neuron 6:845-858 (1991), which contained the rat NT-3 cDNA clone, was provided by Dr. Ira Black (University of Medicine and Dentistry of New Jersey, Piscataway, N.J.). NT-3 cDNA was subcloned into the transfer vector pVL1392 (In Vitrogen Corp., San Diego, Calif.) for recombinant virus production. Recombinant baculovirus was produced as described in Meyer et al. (Meyer at al., J. Neurochem 62:825-833 (1994)).

[2] = system: choline acetyltransferase (ChAT) activity in dissociated rat embryonic spinal cord culture; test: Spinal Cord ChAT Activity Assay; assay type: cell-based; settings: ChAT measured after 48 hours
Experimental: In these assays, a fused pyrrolocarbazole was directly added to a dissociated spinal cord culture. […] The fused pyrrolocarbazole was added on the same day the dissociated spinal cord cell culture was initiated.
Methods: Fetal rat spinal cord cells were dissociated, and experiments were performed as described (Smith et al., J. Cell Biology., 101:1608-1621 (1985); Glicksman et al., J. Neurochem. 61:210-221 (1993)). Dissociated cells were prepared from spinal cords dissected from rats (embryonic day 14-15) by standard trypsin dissociation techniques (Smith et al., J. Cell Biology 10:1608-1621 (1985)). Cells were plated at 6×10^5 cells/cm^2 on poly-1-ornithine coated plastic tissue culture wells in serum-free N2 medium supplemented with 0.05% bovine serum albumin (BSA) (Bottenstein et al., PNAS USA 514-517 (1979)). Cultures were incubated at 37° C. in a humidified atmosphere of 5% CO2 /95% air for 48 hours. ChAT activity was measured after 2 days it vitro using a modification of the Fonnum procedure (Fonnum, J. Neurochem. 24:407-409 (1975)) according to McManaman et al. and Glicksman et al. (McManaman et al., Developmental Biology 125:311-320 (1988); Glicksman et al., J. Neurochem. 61:210-221 (1993)).

trkA tyrosine kinase = trkA tyrosine kinase (Homo sapiens, UniProt P04629); test: trkA Tyrosine Kinase Activity Inhibition Assay (ELISA); assay type: biochemical; settings: 16 μM ATP, 37° C., 15 min; read-out: INHIBITION OF trkA KINASE IC50
Experimental: These compounds were then tested for the ability to inhibit substrate phosphorylation by the trkA tyrosine kinase.
Plates were washed three times with TBST, followed by two washes with TBS (TBST sans Tween-20). Fused pyrrolocarbazoles were then added at various concentrations to a reaction mixture (50 mM HEPES, pH 7.4, 5 mM MnCl2, 5 mM MgCl2, 140 mM NaCl, 16 μM ATP, and 15 ng trkA in a total volume of 1001 μL.). As a negative control, 100 mM EDTA was included in the reaction solution. The plates were then incubated at 37° C. for 15 min. The detection antibody, monoclonal anti-phosphotyrosine antibody (UBI), was added at a dilution of 1:2000 in TBST, and incubated for 1 hour at 37° C. Plates were then washed three times with TBST, followed by a 1 hour incubation at 37° C. with alkaline phosphatase-labeled goat anti-mouse IgG (1:2000 in TBST (Bio-Rad)). After washing three times with TBST followed by two washes with TBS, a colored product was produced by using NADPH as substrate for alkaline phosphatase, and the coupled reactions of diaphorase and alcohol dehydrogenase (GIBCO-BRL ELISA amplification system). The colored product was read at 490 nm in a microplate reader (Biotek).

[3] = system: ChAT activity of basal forebrain cultures; test: Basal Forebrain ChAT Activity Assay; assay type: cell-based, rat; settings: for activity at 0.25 µM: 250 nM
Experimental: Fused pyrrolocarbazoles were tested for the ability to increase ChAT activity of basal forebrain cultures.
Methods: The basal forebrain was dissected from rat embryos (day 17 or 18 embryos) and the cells were dissociated with a neutral protease (Dispase™, Collaborative Research). Neurons were plated at a density of 5×10^4 cells/well (1.5×10^5 cells/cm^2) in poly-1-ornithine and laminin coated plates. Cells were cultured in serum-free N2 medium containing 0.05% BSA at 37° C. in a humidified atmosphere, 5% CO2 /95% air. ChAT activity was assessed 5 days after plating by using the ChAT assay as described in Example III(A)(1).

chick DRG neurons = test: DRG Neuron Survival Assay (calcein AM); assay type: cell-based; settings: 48 hours; for viability at 0.1 µM / viability at 0.25 µM / viability at 0.5 µM: Gallus gallus, DRG neuron, read-out: Neuronal Survival (% of Control); for viability at 0.25 µM: 250 nM; for viability at 0.5 µM: 500 nM
Experimental: Fused pyrrolocarbazoles promoted dorsal root ganglion (DRG) neuronal survival in cultures of chick DRG neurons. Cell survival was measured by uptake of calcein AM, an analog of the viable dye, fluorescein diacetate. Calcein is taken up by viable cells and cleaved intracellularly to fluorescent salts which are retained by intact membranes of viable cells. Microscopic counts of viable neurons correlate directly with relative fluorescence values obtained with the fluorimetric viability assay. This method thus provides a reliable and quantitive measurement of cell survival in the total cell population of a given culture (Bozyczko-Coyne et al., J. Neur. Meth. 50:205-216, 1993).
Methods: Dorsal root ganglia were dissected from embryonic age day 9 chick embryos and dissociated cells prepared by subsequent Dispase (neutral protease, Collaborative Research) dissociation. Neurons were seeded at low density (3×10^4 cells/cm^2) into 96 well poly-L-ornithine and laminin coated plates. Cells were cultured for 48 hours in serum-free N2 medium (Bottenstein and Sato, 1979) at 37° C. in a humidified atmosphere, 5% CO2 /95% air. Cell survival was assessed at 48 hours using the viable fluorimetric assay described above.

AT-2 cells = test: Inhibition of Growth of Prostate Cancer Cell Line (MTS assay); assay type: cell-based; settings: 72 h, read-out: AT-2 cell growth IC50
Experimental: AT-2 cells are a prostate cancer cell sub-line derived from the Dunning H tumor, graciously provided to us by Dr. John Isaacs (John Hopkins, M. D.). Unlike the Dunning H tumor cells, AT-2 cells can be grown in vitro.
Methods: At-2 cells ([…]) were plated on tissue culture plastic in 96-well plates in the presence of RPMI-1640 medium containing 10% fetal calf serum, 250 nM dexamethasone, 2 mM glutamine, 1 mM sodium pyruvate, and penicillin/streptomycin antibiotics. The next day, compounds were added at 4 concentrations (10, 1, 0.1, 0.01 μM) to determine the approximate IC50 range. Cultures were assayed 3 days later for cell number using the MTS [(3-(4,5-dimethylthiazol-2-yl)-5-(3-carboxymethoxyphenyl)-2-(4-sulfophenyl)-2H-tetrazolium, inner salt)] assay. The MTS assay (purchased as a kit from Promega) measures the formation of an aqueous soluble formazan (detected by a plate reader at 490nm) produced by the bioreduction of a tetrazolium compound (MTS) in metabolically active cells via mitochondrial succinate dehydrogenase. After determining linearity of the substrate incubation time over a range of cell plating densities, the amount of product measured is directly proportional to cell number. MTS (333 ug/ml) and 25 μM phenazine methosulfate are mixed and added directly to the culture medium, and incubated at 37° C. in the 5% CO2 /95% air incubator for 0.5-4 h. Absorbance of the product at 490 nm is read on the BIO-TEK plate reader. Background values were obtained from wells containing culture medium with substrate solution, but no cells. In addition, values were also obtained from wells containing cells plated at day 0 and assayed on the day compound was added (day 1) in order to determine the number of cells at the time compound was added. After the initial dose-finding experiment was completed, subsequent experiments were set up so that there were 3 or more concentrations near the predicted IC50.

[4] = system: lumbar motoneurons of chick embryos; test: Inhibition of Motoneuron Death In Ovo; assay type: in vivo; settings: for % of motoneurons rescued versus control / Number of motoneurons mean ± SD: E6-E9; for Number of motoneurons mean ± SD: one side of spinal cord
Experimental: The samples (50 ul) were applied to the vascularized chorioallantoic membrane through a window in the egg shell as previously described (Oppenheim et al., 1988). Embryos were sacrificed on E10 and spinal cords were removed, fixed in Carnoy's solution (10% acetic acid, 60% ethanol, 30% chloroform), embedded in paraffin, sectioned at 8 um, and stained with thionin as described previously (Oppenheim et al., 1988). Motoneurons (identified by morphology and position) were counted by an individual blind to the treatment conditions in every tenth section according to previously established criteria (Oppenheim et al., 1982, Oppenheim, 1986).

[5] = Rattus norvegicus, 120 h, read-out: ChAT Activity (% of Control)

trkA tyrosine kinase, sequence (P04629 33-796): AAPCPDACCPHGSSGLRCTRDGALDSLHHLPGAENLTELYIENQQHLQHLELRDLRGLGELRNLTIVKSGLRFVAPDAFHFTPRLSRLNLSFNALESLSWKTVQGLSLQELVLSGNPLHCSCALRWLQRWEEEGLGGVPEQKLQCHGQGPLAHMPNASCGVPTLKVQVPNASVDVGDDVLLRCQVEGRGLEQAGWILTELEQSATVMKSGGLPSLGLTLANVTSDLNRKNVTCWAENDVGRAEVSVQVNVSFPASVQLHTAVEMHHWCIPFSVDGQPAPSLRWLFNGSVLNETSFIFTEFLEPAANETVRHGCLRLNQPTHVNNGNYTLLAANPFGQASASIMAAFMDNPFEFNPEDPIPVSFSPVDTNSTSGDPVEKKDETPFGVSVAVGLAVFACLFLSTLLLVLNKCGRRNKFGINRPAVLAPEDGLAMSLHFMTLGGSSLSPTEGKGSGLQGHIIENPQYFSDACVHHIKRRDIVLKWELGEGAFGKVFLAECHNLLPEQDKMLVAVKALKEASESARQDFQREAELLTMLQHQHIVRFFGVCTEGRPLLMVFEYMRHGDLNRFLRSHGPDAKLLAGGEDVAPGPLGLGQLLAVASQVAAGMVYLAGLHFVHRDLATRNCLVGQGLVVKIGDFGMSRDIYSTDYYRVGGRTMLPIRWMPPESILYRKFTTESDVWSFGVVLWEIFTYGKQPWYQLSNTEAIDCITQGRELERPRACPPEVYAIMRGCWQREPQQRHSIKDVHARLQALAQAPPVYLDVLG

## O=C1NC(=O)c2c1c1c(c3[nH]c4ccc(Br)cc4c23)Cc2ccccc2-1 [Compound I-6, 3-Bromo-6H, 12H, 13H-indeno[2,3-c]pyrrolo[3,4-c]carbazole-5,7(5H, 7H),-dione]
Protein kinase C
  IC50: 1000 nM
[1]
  ChAT activity in the absence of NT-3: no effect on ChAT activity
  ChAT activity in the presence of NT-3: enhanced ChAT activity
[2]
  Spinal Cord ChAT Activity, % of Control, untreated cultures: 209 % of Control

## O=C1NCc2c1c1c(c3[nH]c4ccc(F)cc4c23)Cc2ccccc2-1 [Compound I-12, 3-Fluoro-5H, 6H, 12H, 13H-indeno[2,3-a]pyrrolo[3,4-c]carbazole-7(7H)one]
trkA tyrosine kinase
  IC50: 26.7 nM
Protein kinase C
  IC50: 85 nM
[3]; Rattus norvegicus, 120 h, 100 nM, read-out: ChAT Activity (% of Control)
  activity at 0.1 µM: 279%
[3]; [5]
  activity at 0.25 µM: 389%
Chick DRG neurons; 100 nM
  viability at 0.1 µM: 126%
Chick DRG neurons
  viability at 0.25 µM: 165%
  viability at 0.5 µM: 178%
[2]
  Spinal Cord ChAT Activity, % of Control, untreated cultures: 173 % of Control

## O=C1NC(=O)c2c1c1c(c3[nH]c4ccccc4c23)CCc2ccccc2-1 [Compound I-14, 12,13-Dihydro-6H, 14H-naphthyl[3,4-a]pyrrolo[3,4-c]carbazole-5,7(5H, 7H)dione]
Protein kinase C
  IC50: 15 nM
[2]
  Spinal Cord ChAT Activity, % of Control, untreated cultures: 153 % of Control
AT-2 cells
  IC50: 3070 nM

## O=C1NCc2c3c(c4[nH]c5ccccc5c4c21)CCc1ccccc1-3 [Compound I-16, 12,13-dihydro-6H, 7H, 14H-naphthyl[3,4-a]pyrrolo[3,4-c]carbazole-5(5H)one]
Protein kinase C
  IC50: 35 nM
[2]
  Spinal Cord ChAT Activity, % of Control, untreated cultures: 142 % of Control

## O=C1NCc2c1c1c(c3[nH]c4ccccc4c23)CCc2ccccc2-1 [Compound I-17, 12,13-Dihydro-5H, 6H, 14H-naphthy[3,4-a]pyrrolo[3,4-c]carbazole-7(7H)one]
trkA tyrosine kinase
  IC50: 66 nM
Protein kinase C
  IC50: 1000 nM
[2]
  Spinal Cord ChAT Activity, % of Control, untreated cultures: 197 % of Control

## O=C1NC(=O)c2c1c1c3ccccc3[nH]c1c1oc3ccccc3c21 [Compound I-21, 6H, 13H -Benzofuranyl[2,3-a]pyrrolo[3,4-c]carbazole-5,7(5H, 7H)dione]
[2]
  Spinal Cord ChAT Activity, % of Control, untreated cultures: 122 % of Control
AT-2 cells; 3 days, MTS
  IC50: > 10000 nM

## O=C1NCc2c1c1c(c3[nH]c4ccc(F)cc4c23)CCc2ccccc2-1 [Compound I-22, 12,13-Dihydro-3-fluoro-5H, 6H, 14H-naphthyl[3,4-a]pyrrolo[3,4-c]carbazole-7(7H)one]
Protein kinase C
  IC50: 250 nM
[2]
  Spinal Cord ChAT Activity, % of Control, untreated cultures: 143 % of Control

## O=C1NCc2c3c(c4[nH]c5ccc(F)cc5c4c21)Cc1ccccc1-3 [Compound I-23, 3-Fluoro-6H, 7H, 12H, 13H -indeno[2,3-a]pyrrolo[3,4-c]carbazole-5(5H)one]
trkA tyrosine kinase
  IC50: 70.6 nM
Protein kinase C
  IC50: 60 nM
Chick DRG neurons; 100 nM
  Neuronal Survival (% of Control): inactive
Chick DRG neurons
  viability at 0.25 µM: 128%
  viability at 0.5 µM: 135%
[2]
  Spinal Cord ChAT Activity, % of Control, untreated cultures: 208 % of Control

## C=CCn1c2ccccc2c2c3c(c4c(c21)Cc1ccccc1-4)C(=O)NC3 [Compound I-26, 13-Allyl-5H,6H,12H-indeno[2,3-a]pyrrolo[3,4-c]carbazole-7(7H)one]
Protein kinase C
  IC50: 300 nM
[2]
  Spinal Cord ChAT Activity, % of Control, untreated cultures: 167 % of Control

## O=C1NCc2c1c1c(c3[nH]c4ccc(CCc5ccccn5)cc4c23)Cc2ccccc2-1 [Compound I-34]
[4]; 0.015 ug/egg daily
  % of motoneurons rescued versus control: 11%
  Number of motoneurons mean ± SD: 10480 ± 585
[4]; 0.15 ug/egg daily
  % of motoneurons rescued versus control: 7%
  Number of motoneurons mean ± SD: 10135 ± 354
[4]; 0.3 ug/egg daily
  % of motoneurons rescued versus control: 23%
  Number of motoneurons mean ± SD: 11593 ± 654
[4]; 0.6 ug/egg daily
  % of motoneurons rescued versus control: 27%
  Number of motoneurons mean ± SD: 11976 ± 1106
[4]; 0.6 ug/egg, vehicle-treated control
  increase in motoneuron survival in treated vs. control embryos, maximal effect: 27%
[4]; daily application to chorioallantoic membrane, E6 to E9
  number of surviving lumbar motoneurons / naturally occurring motoneuron death (in words): dose-dependent increase in the number of surviving lumbar motoneurons
[4]; daily dose
  dose at which the maximal effect was achieved: 0.6 ug/egg
[3]; 100 nM
  ChAT Activity (% of Control): inactive
[3]; 500 nM
  ChAT Activity (% of Control): inactive
[3]; 1000 nM
  ChAT Activity (% of Control): inactive
[3]; [5]
  activity at 0.25 µM: 192%
Chick DRG neurons; 100 nM
  viability at 0.1 µM: 159%
Chick DRG neurons
  viability at 0.25 µM: 203%
  viability at 0.5 µM: 207%
[2]
  Spinal Cord ChAT Activity, % of Control, untreated cultures: 254 % of Control

## O=C1NC(=O)c2c1c1c(c3[nH]c4cc(Cl)ccc4c23)Cc2ccccc2-1 [Compound Ia-1, 2-Chloro-6H , 12H, 13H-indeno[2,3a]pyrrolo[3,4-c]carbazole-5,7(5H, 7H)-dione]
[1]
  ChAT activity in the absence of NT-3: no effect on ChAT activity
  ChAT activity in the presence of NT-3: enhanced ChAT activity
[2]
  Spinal Cord ChAT Activity, % of Control, untreated cultures: 139 % of Control

B1: NT-3: Recombinant rat NT-3 produced by using a recombinant baculovirus expression vector (protein, UniProt P18280 140-258, looked up)
Neurotrophin-3: YAEHKSHRGEYSVCDSESLWVTDKSSAIDIRGHQVTVLGEIKTGNSPVKQYFYETRCKEARPVKNGCRGIDDKHWNSQCKTSQTYVRALTSENNKLVGWRWIRIDTSCVCALSRKIGRT
modifications: baculovirus-expressed
notes: Recombinant rat NT-3 produced by using a recombinant baculovirus expression vector
[1]; NT-3 100 ng/ml, control untreated with NT-3 or fused pyrrolocarbazole
  increase of ChAT activity over control cultures: 140%
